Holding throughout (format): cell-based, human
One test has as its system PC-3. As to the kind of experiment: Cell proliferation experiment, PC-3. The following applies: read-out: Inhibitory activity IC50 on PC-3. The protocol:
(§1) Reagents: RPMI-1640 medium, McCoy's 5A medium, IMDM medium, MEM medium, L-15 medium, fetal bovine serum. Penicillin-Streptomycin double antibody, trypsin, etc., 2-mercaptoethanol, NEAA, pyruvate, etc.
(§2) The cells were cultured in conventional ways, and the cells should be passed at least 2 generations before plating. Cells at the logarithmic growth phase were collected, prepared into single cell suspensions and counted. The concentration of cells was adjusted to the desired concentration, and cells were inoculated into a 96-well cell culture plate at 100 μl per well. 100 μL of complete medium of the test compound were added to each well, set up 2 duplicate wells for each concentration, and diluted with a 5-fold gradient, and continued to culture for 72 h. All cells were subjected to IC50 test for corresponding samples. The experimental results are shown in Test Example 4.
(§3) The fluorescence intensity of each well was detected using the Alarm blue method, and IC50 was calculated.
(§4) IC50 was calculated according to the following formula:
(§5) Y=Max+(Min−Max)/[1+(X/IC50)×Slope]
(§6) wherein Min, Max and Slope represent the minimum, maximum and slope respectively.

Another test has as its system MV4;11 cells. As to the kind of experiment: Cell proliferation experiment (Alamar blue, 72 h), MV4;11. The settings on record: read-out: Inhibitory activity IC50 on MV4;11. In a few lines: (§7)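 Cells were passaged at least twice, harvested in log phase and plated in 96 wells. Compound in complete medium was added at 5-fold gradient concentrations, duplicates per concentration. After 72 h culture, Alamar blue fluorescence was measured and IC50 fitted.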
In general terms: Resazurin is reduced to fluorescent resorufin, in cell work by metabolically active cells.

For another test, the system named is MDA-MB-231 cells. Description: Cell proliferation experiment, MDA-MB-231. The following applies: read-out: Inhibitory activity IC50 on MDA-MB-231. The protocol:
as §1, §2, §3, §4, §5, §6

A further test has as its system NCIH82 cells. Description: Cell proliferation experiment, NCI-H82. The settings on record: read-out: Inhibitory activity IC50 on NCI-H82. The essentials:
as §7

In another test the test system is Daudi cells. As to the kind of experiment: Cell proliferation experiment, Daudi. The following applies: Homo sapiens, Daudi, Daudi cells; read-out: Inhibitory activity IC50 on Daudi. In a few lines: as §7
The mark [1] stands for this setting: Homo sapiens, MDA-MB-231, MDA-MB-231 cells.
Where [2] appears, read: Homo sapiens, NCI-H82, NCI-H82 cells.
[3] abbreviates: Homo sapiens, MV4-11, MV4;11 cells.

Where two headings read alike, the source gives them in different places.

As a reminder, the IC50 is the point on the concentration scale where inhibition reaches its midpoint.

`O=C1CCC(N2Cc3cc(NC(=O)CCOCCOCC(O)COCCn4cc(-c5ccc(Nc6ncc7c(n6)-c6ccc(Cl)cc6C(c6c(F)cccc6F)=NC7)cc5)nn4)ccc3C2=O)C(=O)N1` (stereo not drawn) [UB-181077]: the IC50 with PC-3 (Homo sapiens, PC-3, PC-3 cells) is greater than 1000 nM; in the test on MV4;11 cells (MV4;11 cells), 100 to 1000 nM; in the test on MDA-MB-231 cells (setting [1]), greater than 1000 nM; in the test with NCIH82 cells (setting [2]) it was greater than 1000 nM.

As to `CNC(=O)c1ncccc1Nc1nc(Nc2ccc(N3CCN(C(=O)NC4CCC(NCCOCCC#Cc5ccc6c(c5)CN(C5CCC(=O)NC5=O)C6=O)CC4)CC3)cc2)ncc1Cl` (stereo not drawn) [UB-181129], the IC50 in the test with PC-3 (Homo sapiens, PC-3, PC-3 cells) was greater than 1000 nM; in the test on MV4;11 cells (setting [3]), 10 to 100 nM; with MDA-MB-231 cells (setting [1]), greater than 1000 nM; in the test on NCIH82 cells (setting [2]) it was 100 to 1000 nM.

For `NC(=O)c1ccccc1Nc1nc(Nc2ccc(C3CCN(C(=O)N[C@H]4CC[C@@H](NCCC#Cc5cccc6c5CN(C5CCC(=O)NC5=O)C6=O)CC4)CC3)cc2)ncc1Cl` (stereo partly drawn) [UB-181183], the IC50 in the test with PC-3 (Homo sapiens, PC-3, PC-3 cells) was 10 to 100 nM; in the test on MV4;11 cells (setting [3]) it was less than 10 nM; in the test with NCIH82 cells (setting [2]) it was 10 to 100 nM; with Daudi cells, 10 to 100 nM.

Regarding `CC[C@@H]1C(=O)N(C)c2cnc(Nc3ccc(NC(=O)N[C@H]4CC[C@H](NCCOCCC#Cc5cccc6c5CN(C5CCC(=O)NC5=O)C6=O)CC4)cc3)nc2N1C1CCCC1` (stereo partly drawn) [UB-181126], the IC50 in the test on PC-3 (Homo sapiens, PC-3, PC-3 cells) was 100 to 1000 nM; with MV4;11 cells (setting [3]), less than 10 nM; in the test on MDA-MB-231 cells (setting [1]), 100 to 1000 nM.

As for `NC(=O)c1ccccc1Nc1nc(Nc2ccc(C3CCN(C(=O)NC4CCN(C5CN(CCC#Cc6ccc7c(c6)CN(C6CCC(=O)NC6=O)C7=O)C5)CC4)CC3)cc2)ncc1Cl` (stereo not drawn) [UB-181199], the IC50 in the test with PC-3 (Homo sapiens, PC-3, PC-3 cells) was 10 to 100 nM; in the test on NCIH82 cells (setting [2]), less than 10 nM; in the test on Daudi cells, 10 to 100 nM.

For the compound `CC[C@@H]1C(=O)N(C)c2cnc(Nc3ccc(-c4cn([C@H]5CC[C@@H](N(CCO)CCOCCC#Cc6cccc7c6CN(C6CCC(=O)NC6=O)C7=O)CC5)nn4)cc3OC)nc2N1C1CCCC1` (stereo partly drawn) [UB-181052], the IC50 was less than 10 nM in the test with PC-3 (Homo sapiens, PC-3, PC-3 cells); 10 to 100 nM with MV4;11 cells (setting [3]); 100 to 1000 nM in the test with MDA-MB-231 cells (setting [1]).

`NC(COCCOCCNC(=O)[C@]1(Cc2cccc(Nc3nccs3)n2)CC[C@@H](Oc2cccc(Cl)c2F)CC1)COCCC(=O)Nc1ccc2c(c1)CN(C1CCC(=O)NC1=O)C2=O` (stereo partly drawn) [UB-181064]: the IC50 with PC-3 (Homo sapiens, PC-3, PC-3 cells) is greater than 1000 nM; in the test with MV4;11 cells (setting [3]) it was greater than 1000 nM; in the test with MDA-MB-231 cells (setting [1]) it was greater than 1000 nM; in the test on NCIH82 cells (setting [2]), greater than 1000 nM.

Consider `CNC(=O)c1ccccc1Nc1nc(Nc2ccc(N3CCN(C(=O)NCCOCCOCCOCCC(=O)Nc4ccc5c(c4)CN(C4CCC(=O)NC4=O)C5=O)CC3)cc2)ncc1Cl` (stereo not drawn) [UB-181060], for which the IC50 with PC-3 (Homo sapiens, PC-3, PC-3 cells) is greater than 1000 nM; with MV4;11 cells (setting [3]), 10 to 100 nM; in the test with MDA-MB-231 cells (setting [1]) it was greater than 1000 nM; in the test with NCIH82 cells (setting [2]) it was 10 to 100 nM.

As for `CNC(=O)c1ccccc1Nc1nc(Nc2ccc(N3CCN(C(=O)N[C@H]4C[C@H](NCCCOCCC#Cc5ccc6c(c5)CN(C5CCC(=O)NC5=O)C6=O)C4)CC3)cc2)ncc1Cl` (stereo partly drawn) [UB-181097], the IC50 was greater than 1000 nM in the test with PC-3 (Homo sapiens, PC-3, PC-3 cells); 100 to 1000 nM with MV4;11 cells (setting [3]); greater than 1000 nM in the test on MDA-MB-231 cells (setting [1]); greater than 1000 nM in the test on NCIH82 cells (setting [2]).

On to `CNC(=O)c1ccccc1Nc1nc(Nc2ccc(N3CCN(C(=O)N[C@H]4CC[C@@H](NCCOCCC#Cc5cccc6c5CN(C5CCC(=O)NC5=O)C6=O)CC4)CC3)cc2)ncc1Cl` (stereo partly drawn) [UB-181120], for which the IC50 was 10 to 100 nM with PC-3 (PC-3 cells), less than 10 nM in the test with MV4;11 cells (MV4;11 cells), 100 to 1000 nM in the test with MDA-MB-231 cells (MDA-MB-231 cells) and 100 to 1000 nM with NCIH82 cells (NCI-H82 cells).

As for `CNC(=O)c1ccccc1Nc1nc(Nc2ccc(N3CCN(C(=O)NCCCOCCCNCCC#Cc4cccc5c4CN(C4CCC(=O)NC4=O)C5=O)CC3)cc2)ncc1Cl` (stereo not drawn) [UB-181070], the IC50 with PC-3 (Homo sapiens, PC-3, PC-3 cells) is greater than 1000 nM; in the test on MV4;11 cells (setting [3]) it was 10 to 100 nM; in the test with MDA-MB-231 cells (setting [1]) it was 100 to 1000 nM; with NCIH82 cells (setting [2]), 100 to 1000 nM.

Consider `O=C1CCC(N2Cc3cc(NC(=O)CCNCCOCCOCCNC(=O)[C@]4(Cc5cccc(Nc6nccs6)n5)CC[C@@H](Oc5cccc(Cl)c5F)CC4)ccc3C2=O)C(=O)N1` (stereo partly drawn) [UB-181031], for which the IC50 was greater than 1000 nM in the test on PC-3 (Homo sapiens, PC-3, PC-3 cells); greater than 1000 nM in the test on MV4;11 cells (setting [3]); greater than 1000 nM in the test on MDA-MB-231 cells (setting [1]); greater than 1000 nM in the test with NCIH82 cells (setting [2]).
